In one test the target is T1, HDAC6 enzyme (Homo sapiens, UniProt Q9UBN7).
T1 construct: prepared by transducing full length HDAC1 and HDAC6 genes into Sf-9 insect cells; GST; purchased SignalChem; host or cells: Sf-9 insect cells
T1 sequence (Q9UBN7 1-1215): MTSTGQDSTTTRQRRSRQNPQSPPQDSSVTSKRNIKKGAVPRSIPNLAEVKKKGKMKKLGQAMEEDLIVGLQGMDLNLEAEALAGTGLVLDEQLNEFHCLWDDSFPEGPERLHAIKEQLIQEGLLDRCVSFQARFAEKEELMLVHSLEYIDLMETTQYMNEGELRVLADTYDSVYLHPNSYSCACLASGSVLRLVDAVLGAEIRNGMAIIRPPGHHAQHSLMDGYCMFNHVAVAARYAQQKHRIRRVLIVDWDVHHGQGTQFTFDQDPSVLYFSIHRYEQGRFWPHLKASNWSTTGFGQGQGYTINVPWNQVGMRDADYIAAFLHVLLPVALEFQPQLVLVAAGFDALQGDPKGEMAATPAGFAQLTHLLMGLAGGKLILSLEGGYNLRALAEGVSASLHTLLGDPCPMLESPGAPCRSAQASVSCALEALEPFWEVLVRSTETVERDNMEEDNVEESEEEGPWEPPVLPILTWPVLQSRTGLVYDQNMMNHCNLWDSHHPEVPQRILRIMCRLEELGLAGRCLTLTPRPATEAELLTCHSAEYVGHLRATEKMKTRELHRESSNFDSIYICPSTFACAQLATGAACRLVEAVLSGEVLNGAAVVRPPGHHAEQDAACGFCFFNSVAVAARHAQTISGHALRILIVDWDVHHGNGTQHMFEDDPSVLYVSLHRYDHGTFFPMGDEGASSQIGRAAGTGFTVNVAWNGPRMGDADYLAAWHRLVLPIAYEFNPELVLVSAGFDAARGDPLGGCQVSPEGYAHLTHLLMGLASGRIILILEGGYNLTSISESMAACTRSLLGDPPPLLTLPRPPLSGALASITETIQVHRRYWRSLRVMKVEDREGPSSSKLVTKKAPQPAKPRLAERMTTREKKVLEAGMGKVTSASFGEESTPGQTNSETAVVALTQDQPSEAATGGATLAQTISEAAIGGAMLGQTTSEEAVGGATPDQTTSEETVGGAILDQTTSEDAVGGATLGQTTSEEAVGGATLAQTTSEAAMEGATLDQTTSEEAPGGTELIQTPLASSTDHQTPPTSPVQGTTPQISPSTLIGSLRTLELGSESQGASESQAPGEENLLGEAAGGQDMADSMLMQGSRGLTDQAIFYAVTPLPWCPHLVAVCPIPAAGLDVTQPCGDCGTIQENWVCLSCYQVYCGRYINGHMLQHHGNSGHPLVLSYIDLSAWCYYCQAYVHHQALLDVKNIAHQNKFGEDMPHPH
Kind of test: HDAC6 enzyme inhibitory assay (HDAC-Glo I/II Assay kit). The format is biochemical. Particulars: 1 μM test compound; for inhibition at 1 µM: read-out: HDAC6 inhibitory rate (%) (1 μM). In short, it runs like this:
(§1)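 Relative activity was calculated from luminescence, with wells lacking enzyme defined as 100% inhibition. The enzymes were full-length HDAC1 or HDAC6 from Sf-9 cells, preincubated with test compound for 60 min before a 20-min substrate-developer reaction at room temperature.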

The target of a further test is T2, HDAC1 enzyme (Homo sapiens, UniProt Q13547).
T2 construct: prepared by transducing full length HDAC1 and HDAC6 genes into Sf-9 insect cells; GST; purchased SignalChem; host or cells: Sf-9 insect cells
T2 sequence (Q13547 whole entry): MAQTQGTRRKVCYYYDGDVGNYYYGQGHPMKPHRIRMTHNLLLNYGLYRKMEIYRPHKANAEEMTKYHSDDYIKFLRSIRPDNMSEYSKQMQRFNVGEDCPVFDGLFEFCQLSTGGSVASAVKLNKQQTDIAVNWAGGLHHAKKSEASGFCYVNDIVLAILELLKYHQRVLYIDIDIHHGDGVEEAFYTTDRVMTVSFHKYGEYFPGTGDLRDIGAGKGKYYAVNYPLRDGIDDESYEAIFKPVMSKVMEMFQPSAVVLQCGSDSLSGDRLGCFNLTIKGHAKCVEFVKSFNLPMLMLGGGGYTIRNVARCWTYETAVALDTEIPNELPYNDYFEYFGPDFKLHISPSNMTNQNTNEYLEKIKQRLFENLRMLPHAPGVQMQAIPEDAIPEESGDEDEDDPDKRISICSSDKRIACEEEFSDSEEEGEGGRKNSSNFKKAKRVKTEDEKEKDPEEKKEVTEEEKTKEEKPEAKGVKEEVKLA
Put plainly: HDAC1 enzyme inhibitory assay (HDAC-Glo I/II Assay kit). The format is biochemical. The following applies: 1 μM test compound; for inhibition at 1 µM: read-out: HDAC1 inhibitory rate (%) (1 μM). The method, boiled down: as §1

Take `O=C(NC[C@H]1COCCN1C(=O)N1CCC2(CC1)COC2)c1ccc(-c2noc(C(F)(F)F)n2)cc1` [Example 282, N-(((3S)-4-(2-oxa-7-azaspiro[3.5]non-7-ylcarbonyl)morpholin-3-yl)methyl)-4-(5-(trifluoromethyl)-1,2,4-oxadiazol-3-yl)benzamide]: the inhibition at 1 µM on HDAC6 enzyme was determined as 83%; at HDAC1 enzyme, 5%.

As to `NC(=O)[C@@H]1CCCN1C(=O)N1CCOC[C@@H]1CNC(=O)c1ccc(-c2noc(C(F)(F)F)n2)cc1` [Example 283, 1-(((3S)-3-(((4-(5-(trifluoromethyl)-1,2,4-oxadiazol-3-yl)benzoyl)amino)methyl)morpholin-4-yl)carbonyl)-L-prolinamide], the inhibition at 1 µM at HDAC6 enzyme is 73%; on HDAC1 enzyme, -1%.

For the compound `N#C[C@H]1CCCN1C(=O)N1CCOC[C@@H]1CNC(=O)c1ccc(-c2noc(C(F)(F)F)n2)cc1` [Example 284, N-(((3S)-4-(((2R)-2-cyanopyrrolidin-1-yl)carbonyl)morpholin-3-yl)methyl)-4-(5-(trifluoromethyl)-1,2,4-oxadiazol-3-yl)benzamide], the inhibition at 1 µM on HDAC6 enzyme was determined as 95%; at HDAC1 enzyme, 1%.

Consider `N#C[C@@H]1CCCN1C(=O)N1CCOC[C@@H]1CNC(=O)c1ccc(-c2noc(C(F)(F)F)n2)cc1` [Example 285, N-(((3S)-4-(((2S)-2-cyanopyrrolidin-1-yl)carbonyl)morpholin-3-yl)methyl)-4-(5-(trifluoromethyl)-1,2,4-oxadiazol-3-yl)benzamide], for which the inhibition at 1 µM at HDAC6 enzyme came to 83%; on HDAC1 enzyme it was 3%.

Turning to `O=C(NC[C@H]1COCCN1C(=O)N1CCC[C@@H]1C(F)(F)F)c1ccc(-c2noc(C(F)(F)F)n2)cc1` [Example 286, 4-(5-(trifluoromethyl)-1,2,4-oxadiazol-3-yl)-N-(((3S)-4-(((2R)-2-(trifluoromethyl)pyrrolidin-1-yl)carbonyl)morpholin-3-yl)methyl)benzamide], the values for the inhibition at 1 µM at HDAC6 enzyme and on HDAC1 enzyme were 95% and 2%, respectively.

In the case of `O=C(NC[C@H]1COCCN1C(=O)N1CCC[C@H]1C(F)(F)F)c1ccc(-c2noc(C(F)(F)F)n2)cc1` [Example 287, 4-(5-(trifluoromethyl)-1,2,4-oxadiazol-3-yl)-N-(((3S)-4-(((2S)-2-(trifluoromethyl)pyrrolidin-1-yl)carbonyl)morpholin-3-yl)methyl)benzamide], the inhibition at 1 µM on HDAC6 enzyme worked out at 91%; at HDAC1 enzyme, 2%.

As to `C[C@H]1CCCN1C(=O)N1CCOC[C@@H]1CNC(=O)c1ccc(-c2noc(C(F)(F)F)n2)cc1` [Example 288, N-(((3S)-4-(((2S)-2-methylpyrrolidin-1-yl)carbonyl)morpholin-3-yl)methyl)-4-(5-(trifluoromethyl)-1,2,4-oxadiazol-3-yl)benzamide], the results for the inhibition at 1 µM on HDAC6 enzyme and at HDAC1 enzyme were 102% and 3%, respectively.

For `C[C@@H]1CCCN1C(=O)N1CCOC[C@@H]1CNC(=O)c1ccc(-c2noc(C(F)(F)F)n2)cc1` [Example 289, N-(((3S)-4-(((2R)-2-methylpyrrolidin-1-yl)carbonyl)morpholin-3-yl)methyl)-4-(5-(trifluoromethyl)-1,2,4-oxadiazol-3-yl)benzamide], the figures for the inhibition at 1 µM on HDAC6 enzyme and on HDAC1 enzyme were 85% and 4%, respectively.

For `O=C(NC[C@H]1COCCN1C(=O)N1CCCOCC1)c1ccc(-c2noc(C(F)(F)F)n2)cc1` [Example 290, N-(((3S)-4-(1,4-oxazepan-4-ylcarbonyl)morpholin-3-yl)methyl)-4-(5-(trifluoromethyl)-1,2,4-oxadiazol-3-yl)benzamide], the results for the inhibition at 1 µM at HDAC6 enzyme and on HDAC1 enzyme were 97% and 3%, respectively.

Regarding `O=C(NC[C@H]1COCCN1C(=O)N1CCCOC(CO)C1)c1ccc(-c2noc(C(F)(F)F)n2)cc1` (stereo partly drawn) [Example 291, N-(((3S)-4-((2-(hydroxymethyl)-1,4-oxazepan-4-yl)carbonyl)morpholin-3-yl)methyl)-4-(5-(trifluoromethyl)-1,2,4-oxadiazol-3-yl)benzamide], the inhibition at 1 µM at HDAC6 enzyme was 90%; at HDAC1 enzyme, 1%.

Take `O=C(NC[C@H]1COCCN1C(=O)N1CCCC1c1cccnc1)c1ccc(-c2noc(C(F)(F)F)n2)cc1` (stereo partly drawn) [Example 292, N-(((3S)-4-((2-(pyridin-3-yl)pyrrolidin-1-yl)carbonyl)morpholin-3-yl)methyl)-4-(5-(trifluoromethyl)-1,2,4-oxadiazol-3-yl)benzamide]: the inhibition at 1 µM on HDAC6 enzyme was determined as 76%; at HDAC1 enzyme, 2%.

Turning to `O=C(NC[C@H]1COCCN1C(=O)N1CCC(c2ccccc2)C1)c1ccc(-c2noc(C(F)(F)F)n2)cc1` (stereo partly drawn) [Example 293, N-(((3S)-4-((3-phenylpyrrolidin-1-yl)carbonyl)morpholin-3-yl)methyl)-4-(5-(trifluoromethyl)-1,2,4-oxadiazol-3-yl)benzamide], the inhibition at 1 µM came to 90% on HDAC6 enzyme and 14% on HDAC1 enzyme.

On to `O=C(NC[C@H]1COCCN1C(=O)N1CCC(c2cccnc2)C1)c1ccc(-c2noc(C(F)(F)F)n2)cc1` (stereo partly drawn) [Example 294, N-(((3S)-4-((3-(pyridin-3-yl)pyrrolidin-1-yl)carbonyl)morpholin-3-yl)methyl)-4-(5-(trifluoromethyl)-1,2,4-oxadiazol-3-yl)benzamide], for which the inhibition at 1 µM came out at 82% at HDAC6 enzyme and 5% at HDAC1 enzyme.

Turning to `O=C(NC[C@H]1COCCN1C(=O)N1CCC(c2ccncc2)C1)c1ccc(-c2noc(C(F)(F)F)n2)cc1` (stereo partly drawn) [Example 295, N-(((3S)-4-((3-(pyridin-4-yl)pyrrolidin-1-yl)carbonyl)morpholin-3-yl)methyl)-4-(5-(trifluoromethyl)-1,2,4-oxadiazol-3-yl)benzamide], the inhibition at 1 µM is 85% on HDAC6 enzyme and 8% on HDAC1 enzyme.

On to `O=C(NC[C@H]1COCCN1C(=O)c1ccnn1CCO)c1ccc(-c2noc(C(F)(F)F)n2)cc1` [Example 296, N-(((3S)-4-((1-(2-hydroxyethyl)-1H-pyrazol-5-yl)carbonyl)morpholin-3-yl)methyl)-4-(5-(trifluoromethyl)-1,2,4-oxadiazol-3-yl)benzamide], for which the results for the inhibition at 1 µM at HDAC6 enzyme and on HDAC1 enzyme were 100% and 32%, respectively.

On to `Cn1nccc1CC(=O)N1CCOC[C@@H]1CNC(=O)c1ccc(-c2noc(C(F)(F)F)n2)cc1` [Example 297, N-(((3S)-4-((1-methyl-1H-pyrazol-5-yl)acetyl)morpholin-3-yl)methyl)-4-(5-(trifluoromethyl)-1,2,4-oxadiazol-3-yl)benzamide], for which the inhibition at 1 µM at HDAC6 enzyme was 93%; on HDAC1 enzyme, 5%.

As for `O=C(NC[C@H]1COCCN1C(=O)N1CCC(CO)C1)c1ccc(-c2noc(C(F)(F)F)n2)cc1` (stereo partly drawn) [Example 298, N-(((3S)-4-((3-(hydroxymethyl)pyrrolidin-1-yl)carbonyl)morpholin-3-yl)methyl)-4-(5-(trifluoromethyl)-1,2,4-oxadiazol-3-yl)benzamide], the inhibition at 1 µM on HDAC6 enzyme was found to be 88%; on HDAC1 enzyme, 3%.

For the compound `O=C(NC[C@H]1COCCN1C(=O)N1CCC(CO)C1)c1ccc(-c2noc(C(F)(F)F)n2)cc1` (stereo partly drawn) [Example 299, N-(((3S)-4-((3-(hydroxymethyl)pyrrolidin-1-yl)carbonyl)morpholin-3-yl)methyl)-4-(5-(trifluoromethyl)-1,2,4-oxadiazol-3-yl)benzamide], the “HDAC6 inhibitory rate (%) (1 μM)” value at HDAC6 enzyme (1 µM) was 94%. The “HDAC1 inhibitory rate (%) (1 μM)” value at HDAC1 enzyme (1 µM) stood at 4%.

Take `O=C(NC[C@H]1COCCN1C(=O)N1CCC(CCO)C1)c1ccc(-c2noc(C(F)(F)F)n2)cc1` (stereo partly drawn) [Example 300, N-(((3S)-4-((3-(2-hydroxyethyl)pyrrolidin-1-yl)carbonyl)morpholin-3-yl)methyl)-4-(5-(trifluoromethyl)-1,2,4-oxadiazol-3-yl)benzamide]: the inhibition at 1 µM is 90% on HDAC6 enzyme and 4% at HDAC1 enzyme.

(Values after patent publication US10081624B2, “Heterocyclic compound” (Takeda Pharmaceutical Company Limited, priority 2014, dated 2018).)
